Values of other authors as cited in patent US7329659B2, “Substituted-1-phthalazinamines as vr-1 antagonists” (Merck Sharp & Dohme Limited, priority 2003, dated 2008).

Target: VR1 (Rattus norvegicus, UniProt O35433)
Settings: Wahl et al., Mol. Pharmacol., 59:9, 2001

VR1, sequence (O35433 whole entry): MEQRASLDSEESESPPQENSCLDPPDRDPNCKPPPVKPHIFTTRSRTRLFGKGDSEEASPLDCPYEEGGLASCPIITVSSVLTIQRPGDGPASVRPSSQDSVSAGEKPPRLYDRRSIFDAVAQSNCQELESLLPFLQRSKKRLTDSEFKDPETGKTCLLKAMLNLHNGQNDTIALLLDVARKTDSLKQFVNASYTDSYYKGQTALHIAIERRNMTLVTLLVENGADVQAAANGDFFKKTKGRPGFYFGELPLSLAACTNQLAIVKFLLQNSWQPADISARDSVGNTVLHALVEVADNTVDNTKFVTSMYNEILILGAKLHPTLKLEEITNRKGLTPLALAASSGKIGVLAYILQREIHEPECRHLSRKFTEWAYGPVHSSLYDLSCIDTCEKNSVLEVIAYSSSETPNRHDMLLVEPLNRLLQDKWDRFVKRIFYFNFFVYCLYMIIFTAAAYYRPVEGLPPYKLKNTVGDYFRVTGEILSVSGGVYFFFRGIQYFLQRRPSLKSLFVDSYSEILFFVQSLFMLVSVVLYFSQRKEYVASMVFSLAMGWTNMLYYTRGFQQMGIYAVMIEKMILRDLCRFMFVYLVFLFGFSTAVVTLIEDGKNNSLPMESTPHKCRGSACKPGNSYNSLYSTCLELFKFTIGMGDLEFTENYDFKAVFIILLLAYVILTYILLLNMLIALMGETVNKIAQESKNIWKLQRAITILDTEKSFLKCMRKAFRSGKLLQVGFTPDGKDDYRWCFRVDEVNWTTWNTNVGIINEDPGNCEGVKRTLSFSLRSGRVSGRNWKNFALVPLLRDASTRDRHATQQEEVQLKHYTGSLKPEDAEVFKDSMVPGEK

Structure (SMILES): C=C(C)[C@]12C[C@@H](C)[C@@]34O[C@](Cc5ccccc5)(O[C@@H]1[C@@H]3C=C(COC(=O)Cc1cc(I)c(O)c(OC)c1)C[C@]1(O)C(=O)C(C)=C[C@@H]41)O2 [Iodo-resiniferatoxin]
- VR1 antagonist potency (in words): nanomolar antagonist of VR1
